Experimental data reported in US9546176B2, “Small molecule bicyclic and tricyclic CFTR correctors” (DISCOVERYBIOMED, INC., priority 2012, dated 2017).
Where two headings read alike, the source gives them in different places.

Molecular target: T1, delF508-CFTR (Homo sapiens, UniProt P13569, DEL508-508)
T1 construct: endogenous in cells; host or cells: CFBE41o- human CF bronchial epithelial cells (delF508 homozygous)
Assay: SPQ halide-sensitive fluorescence dye assay for rescue of halide efflux (8-point concentration-response)
Assay type: cell-based
Settings: for potency and efficacy compared with VX-809 in SPQ assay: versus VX-809
Method: The method of profiling can include detecting the rescue of halide efflux from a cell. The step of detecting a rescue of halide efflux from the cell can be monitored using the halide quenched dye 6-methoxy-N-(3-sulfopropyl)-quinolinium (SPQ, Molecular Probes Inc., Eugene, Oreg.). In this method, cells are treated with a compound as described herein for a period of time (e.g., 48 hours). The rescue or correction of halide efflux is then detected using the SPQ assay with the halide dye. […] Optionally, the halide efflux is chloride efflux. The method of screening can further comprise performing the method with multiple concentrations of the compound.
The compounds were initially subjected to the SPQ halide-sensitive fluorescence dye profiling assay for rescue or correction of membrane chloride ion permeability or transport with an 8-point concentration-response curve. The EC50 values for the compounds described herein were determined using SPQ (Table 1). The ΔSPQ value was calculated by determining the difference between the maximum and minimum SPQ values for the compounds.
To perform the SPQ high throughput screening assay, CFBE41o-cells were seeded into 96-well microtiter plates and were loaded with the fluorescent halide-sensitive dye, SPQ, in serum-containing culture medium. Certain wells were loaded with known positive control corrector molecules, including the industry standard Vertex 809 (VX-809; Vertex Pharmaceuticals, Cambridge, Mass.) at 3 μM, which is the maximally effective profiling dose for VX-809. The test compounds were loaded into wells and were tested in triplicate wells at a 10 μM dose and incubated over 48 hours at room temperature. During the 48 hour period, SPQ was absorbed. Plates were washed in a sodium chloride (NaCl) based Ringer and read once over two minutes to set the baseline SPQ fluorescence activity. Then, NaCl was replaced by sodium nitrate (NaNO3) based Ringer. The plates were read twice over four minutes. The primary high throughput screen (HTS) data were analyzed to detect any function of rescued delF508-CFTR under basal conditions. The plate was read up to two times to complete the SPQ HTS assay.

[1] = CFBE41o- cells, 48 h, read-out: SPQ EC50

T1 sequence (P13569 with tags, fused parts or gaps DEL508-508): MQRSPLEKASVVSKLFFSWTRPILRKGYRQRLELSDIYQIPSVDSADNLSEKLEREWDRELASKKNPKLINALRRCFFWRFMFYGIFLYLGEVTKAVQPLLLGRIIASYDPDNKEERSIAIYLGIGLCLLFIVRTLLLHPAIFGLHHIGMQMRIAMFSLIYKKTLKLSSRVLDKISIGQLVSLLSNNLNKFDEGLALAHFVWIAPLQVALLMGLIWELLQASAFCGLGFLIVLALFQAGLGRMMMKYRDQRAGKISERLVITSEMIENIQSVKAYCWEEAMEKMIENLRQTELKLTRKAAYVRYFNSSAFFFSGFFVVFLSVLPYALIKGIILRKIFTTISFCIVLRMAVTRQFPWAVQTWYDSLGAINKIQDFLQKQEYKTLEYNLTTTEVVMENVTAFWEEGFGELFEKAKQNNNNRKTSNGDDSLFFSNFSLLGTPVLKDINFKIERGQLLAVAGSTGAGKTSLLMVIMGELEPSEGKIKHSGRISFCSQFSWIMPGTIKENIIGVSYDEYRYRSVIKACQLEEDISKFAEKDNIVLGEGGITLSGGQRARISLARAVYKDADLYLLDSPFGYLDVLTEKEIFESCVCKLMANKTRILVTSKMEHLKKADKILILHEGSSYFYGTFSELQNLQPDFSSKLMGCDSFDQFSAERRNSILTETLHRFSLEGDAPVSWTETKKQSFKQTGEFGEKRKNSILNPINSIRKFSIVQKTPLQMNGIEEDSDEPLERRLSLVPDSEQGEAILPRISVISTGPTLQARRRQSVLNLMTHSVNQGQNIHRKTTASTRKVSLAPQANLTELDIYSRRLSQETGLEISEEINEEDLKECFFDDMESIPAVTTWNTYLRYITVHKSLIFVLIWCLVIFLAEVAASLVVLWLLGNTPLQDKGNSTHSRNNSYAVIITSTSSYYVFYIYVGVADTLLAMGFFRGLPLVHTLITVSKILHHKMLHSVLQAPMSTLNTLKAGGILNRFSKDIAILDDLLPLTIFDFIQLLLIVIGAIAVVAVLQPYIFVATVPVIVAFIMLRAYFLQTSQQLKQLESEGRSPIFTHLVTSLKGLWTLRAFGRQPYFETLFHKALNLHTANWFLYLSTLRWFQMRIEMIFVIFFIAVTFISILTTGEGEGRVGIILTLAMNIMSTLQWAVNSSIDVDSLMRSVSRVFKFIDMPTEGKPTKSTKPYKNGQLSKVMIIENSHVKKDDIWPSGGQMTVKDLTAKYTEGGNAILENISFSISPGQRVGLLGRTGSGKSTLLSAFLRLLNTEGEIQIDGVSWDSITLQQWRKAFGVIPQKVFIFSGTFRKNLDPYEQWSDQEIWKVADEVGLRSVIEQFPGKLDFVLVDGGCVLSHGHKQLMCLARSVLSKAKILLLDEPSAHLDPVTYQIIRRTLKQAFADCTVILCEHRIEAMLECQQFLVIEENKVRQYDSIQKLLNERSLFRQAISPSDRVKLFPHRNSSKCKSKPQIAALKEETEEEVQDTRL

Row | Structure (SMILES) | ΔSPQ (difference between maximum and minimum SPQ values) (CFBE41o- cells, 48 h) | EC50 [1] | SPQ EC50 (CFBE41o- cells, 48 h) | potency and efficacy compared with VX-809 in SPQ assay | EC50
1 | Cc1c(C)n2c3c(=O)n(CCCO)c(=O)n(C)c3nc2n1Cc1ccco1 [Compound I-47] | 7294 RFU | 10.6 µM |  |  | 
2 | C=CCn1c(C)cn2c3c(=O)n(Cc4ccc(F)cc4)c(=O)n(C)c3nc12 [Compound I-22] | 8993 RFU | 6.3 µM |  |  | 
3 | C=CCn1c(=O)c2c(nc3n(-c4ccccc4C)c(C)c(C)n23)n(C)c1=O [Compound I-20] | 9362 RFU | 3.8 µM |  |  | 
4 | Cn1c(=O)c2nc(N3CCN(c4ccccn4)CC3)[nH]c2n(C)c1=O [Compound B-3] |  | 10 µM |  |  | 
5 | C=CCn1c(C)cn2c3c(=O)n(Cc4cccc(C)c4)c(=O)n(C)c3nc12 [Compound I-21] | 7073 RFU | 9.4 µM |  |  | 
6 | C/C=C/Cn1c(=O)c2c(nc3n(CCCC)c(C)cn23)n(C)c1=O [Compound I-27] | 8829 RFU | 18.4 µM |  |  | 
7 | Cn1c(=O)c2nc(N3CCN(Cc4ccc(C(F)(F)F)cc4)CC3)[nH]c2n(C)c1=O [Compound B-7.7] |  |  | No effect |  | 
8 | Cn1c(=O)c2[nH]c(NCCSc3ncccn3)nc2n(C)c1=O [Compound B-12] |  |  | No effect |  | 
9 | CCCn1c(=O)c2c(nc3n(CC(C)C)c(C)c(C)n23)n(C)c1=O [Compound I-31] | 300 RFU | 12.7 µM |  |  | 
10 | CCCCn1c(=O)c2c(nc3n(CCN4CCOCC4)c(C)c(C)n23)n(C)c1=O [Compound I-51] | 9639 RFU | > 30 µM |  |  | 
11 | Cn1c(=O)c2nc(N3CCN(Cc4ccc5c(c4)OCCO5)CC3)[nH]c2n(C)c1=O [Compound B-7.8] |  |  | No effect |  | 
12 | CCCn1c(=O)c2c(nc3n(C(C)CC)c(C)cn23)n(C)c1=O (stereo not drawn) [Compound I-37] | 8170 RFU | 10.7 µM |  |  | 
13 | CCCn1c(=O)c2c(nc3n(Cc4ccco4)c(C)c(C)n23)n(C)c1=O [Compound I-32] | 2989 RFU | 3.3 µM |  |  | 
14 | CCn1c(=O)c2c(nc3n(-c4ccccc4OC)c(C)c(C)n23)n(C)c1=O [Compound I-25] | 6949 RFU | 10.4 µM |  |  | 
15 | COc1ccc(CN2CCN(c3nc4c(=O)n(C)c(=O)n(C)c4[nH]3)CC2)cc1OC [Compound B-7.2] |  | > 30 µM |  |  | 
16 | Cn1c(=O)c2[nH]c(N3CCN(c4ccncc4)CC3)nc2n(C)c1=O [Compound B-4] |  |  | No effect |  | 
17 | Cn1c(=O)c2nc(N3CCN(c4ncccn4)CC3)[nH]c2n(C)c1=O [Compound B-5] |  |  | No effect |  | 

Row | Structure (SMILES) | ΔSPQ (difference between maximum and minimum SPQ values) (CFBE41o- cells, 48 h) | EC50 [1] | SPQ EC50 (CFBE41o- cells, 48 h) | potency and efficacy compared with VX-809 in SPQ assay | EC50
18 | COc1ccc(CN2CCN(c3nc4c(=O)n(C)c(=O)n(C)c4[nH]3)CC2)cc1 [Compound B-7.1] | 800 RFU | 0.9 µM |  | superior potency and efficacy to VX-809 | 
19 | CCn1c(=O)c2c(nc3n(C(C)c4ccccc4)c(C)cn23)n(C)c1=O (stereo not drawn) [Compound I-30] | 18574 RFU | 22.6 µM |  |  | 
20 | CCn1c(=O)c2c(nc3n(-c4cccc(OC)c4)c(C)c(C)n23)n(C)c1=O [Compound I-29] | 10298 RFU | 9.6 µM |  |  | 
21 | C/C=C/Cn1c(=O)c2c(nc3n(Cc4ccco4)c(C)cn23)n(C)c1=O [Compound I-52] | 6282 RFU | > 30 µM |  |  | 
22 | Cn1c(=O)c2nc(NCCO)[nH]c2n(C)c1=O [Compound B-8] |  |  | No effect |  | 
23 | C/C=C/Cn1c(=O)c2c(nc3n2CCN3Cc2ccco2)n(C)c1=O [Compound I-53] | 6050 RFU | 11 µM |  |  | 
24 | Cc1cccc(-n2c(C)c(C)n3c4c(=O)n(C)c(=O)n(C)c4nc23)c1 [Compound I-5] | 13531 RFU | > 30 µM |  |  | 
25 | CCCCn1c(C)cn2c3c(=O)n(CCC)c(=O)n(C)c3nc12 [Compound I-2] | 3102 RFU |  |  |  | > 30 µM
26 | COCCCCN1CCN(c2nc3c(=O)n(C)c(=O)n(C)c3[nH]2)CC1 [Compound B-7.20] |  |  | No effect |  | 
27 | Cn1c(=O)c2[nH]c(N3CCN(c4ccc(O)cc4)CC3)nc2n(C)c1=O [Compound B-6] |  |  | No effect |  | 
28 | Cn1c(=O)c2nc(N3CCOCC3)[nH]c2n(C)c1=O [Compound B-1] |  | 9.7 µM |  |  | 
29 | C=CCn1c(=O)c2c(nc3n(C(C)c4ccccc4)c(C)c(C)n23)n(C)c1=O (stereo not drawn) [Compound I-43] | 9439 RFU | 3.4 µM |  |  | 
30 | CCCn1c(=O)c2c(nc3n(-c4ccccc4OC)c(C)c(C)n23)n(C)c1=O [Compound I-17] | 3733 RFU | 8.8 µM |  |  | 
31 | Cc1cn2c3c(=O)n(C)c(=O)n(C)c3nc2n1-c1cccc(O)c1 [Compound A-2] | 4000 RFU | 8.9 µM |  | superior potency and efficacy to VX-809 | 
32 | Cn1c(=O)c2nc(N3CCN(CCO)CC3)[nH]c2n(C)c1=O [Compound B-14] |  |  | No effect |  | 
33 | Cc1c(C)n2c3c(=O)n(CC(C)C)c(=O)n(C)c3nc2n1Cc1ccco1 [Compound I-44] | 9148 RFU | 10 µM |  |  | 
34 | Cc1cn2c3c(=O)n(C)c(=O)n(C)c3nc2n1CC[N+](C)(C)C [Compound A-9] |  |  | No effect |  | 

Second part, led by results:

Row | ΔSPQ (difference between maximum and minimum SPQ values) (CFBE41o- cells, 48 h) | EC50 [1] | SPQ EC50 (CFBE41o- cells, 48 h) | potency and efficacy compared with VX-809 in SPQ assay | Structure (SMILES) | EC50
35 | 4528 RFU | 12.3 µM |  |  | CCOC(=O)C1CCCN(c2nc3c(c(=O)n(C)c(=O)n3C)n2CC)C1 (stereo not drawn) [III-5] | 
36 | 10602 RFU | 17.1 µM |  |  | C=C(C)CN1N=C(C)Cn2c1nc1c2c(=O)n(C/C=C/C)c(=O)n1C [Compound V-2] | 
37 | 2279 RFU | > 30 µM |  |  | COc1ccc(N2CC(C)Cn3c2nc2c3c(=O)n(C)c(=O)n2C)cc1 (stereo not drawn) [IV-2] | 
38 | 5748 RFU | 22.9 µM |  |  | COc1cccc(N2CC(C)Cn3c2nc2c3c(=O)n(CCCO)c(=O)n2C)c1 (stereo not drawn) [IV-10] | 
39 | 12224 RFU | 10.7 µM |  |  | CCCn1c(=O)c2c(nc3n2CCCN3Cc2ccccc2)n(C)c1=O [IV-1] | 
40 | 12233 RFU | 17.1 µM |  |  | CCCN1N=C(C)Cn2c1nc1c2c(=O)n(CC(C)C)c(=O)n1C [Compound V-1] | 
41 | 12028 RFU | 7 µM |  | superior potency and efficacy to VX-809 | CCCCn1c(=O)c2c(nc3n2CC(C)=NN3CCC)n(C)c1=O [Compound V-4] | 
42 | 3369 RFU | 6.5 µM |  |  | C=C(C)CN1N=C(C)Cn2c1nc1c2c(=O)n(CC)c(=O)n1C [Compound V-22] | 
43 | 3979 RFU | 23 µM |  |  | C=CCn1c(=O)c2c(nc3n2CC(C)=NN3Cc2ccccc2)n(C)c1=O [Compound V-17] | 
44 | 9814 RFU | 3.6 µM |  | superior potency and efficacy to VX-809 | Cn1c(=O)c2[nH]c(N3CCN(c4ccccc4O)CC3)nc2n(C)c1=O [Compound III-2] | 
45 | 4602 RFU | > 30 µM |  |  | CCCN1N=C(C)Cn2c1nc1c2c(=O)n(CCC)c(=O)n1C [Compound V-13] | 
46 | 2122 RFU | 3.4 µM |  |  | COc1cccc(N2CC(C)Cn3c2nc2c3c(=O)n(C)c(=O)n2C)c1 (stereo not drawn) [IV-5] | 
47 | 3118 RFU | 11.9 µM |  |  | Cc1cccc(N2CC(C)Cn3c2nc2c3c(=O)[nH]c(=O)n2C)c1 (stereo not drawn) [IV-8] | 
48 | 10773 RFU | 8.3 µM |  |  | C=CCN1N=C(C)C(C)n2c1nc1c2c(=O)n(CCCC)c(=O)n1C (stereo not drawn) [Compound V-9] | 
49 | 6365 RFU | > 30 µM |  |  | C/C=C/Cn1c(=O)c2c(nc3n2C(C)C(C)=NN3CC)n(C)c1=O (stereo not drawn) [Compound V-12] | 
50 | 5767 RFU | > 30 µM |  |  | C/C=C/CN1N=C(C)Cn2c1nc1c2c(=O)n(CC(C)C)c(=O)n1C [Compound V-14] | 
51 | 3625 RFU | > 30 µM |  |  | C=C(C)Cn1c(=O)c2c(nc3oc(C(C)(C)C)cn32)n(C)c1=O [II-4] | 
52 | 5256 RFU | > 30 µM |  |  | CCn1c(N2CCN(CCCc3ccccc3)CC2)nc2c1c(=O)[nH]c(=O)n2C [III-4] | 
53 | 4687 RFU | 10.2 µM |  |  | Cc1ccc(N2CC(C)Cn3c2nc2c3c(=O)[nH]c(=O)n2C)cc1 (stereo not drawn) [IV-9] | 
54 | 3796 RFU | > 30 µM |  |  | CC1=NNc2nc3c(c(=O)n(CCCc4ccccc4)c(=O)n3C)n2C1 [Compound V-24] | 
